This note sets out measurements from US20170334919A1, “2-((4-AMINO-3-(3-FLUORO-5-HYDROXYPHENYL)-1H-PYRAZOLO[3,4-D]PYRIMIDIN-1 -YL)METHYL)-3-(2-(TRIFLUORO-MET HYL)BENZYL)QUINAZOLIN-4(3H)-ONE DERIVATIVES AND THEIR USE AS PHOSPHOINOSITIDE 3-KINASE INHIBITORS” (RESPIVERT LTD., priority 2013, published 2017).

Assay [1] relates to PI3K δ (Akt phosphorylation in d-U937 cells). As to the kind of experiment: PI3K δ cell based assay: H2O2-induced Akt phosphorylation in d-U937 cells. To be noted: Homo sapiens, dU937; inhibition of induced Akt phosphorylation; read-out: Cellular Activity REC50 values in d-U937 cells, H2O2 stimulus. Here is the method: As a means of assessing PI3K δ activation in response to stimuli, the phosphorylation status of the protein, Akt, a downstream product of PI3Kδ, signaling was determined.
U937 cells, obtained from a human, leukemic, monocyte lymphoma cell line, were differentiated to macrophage-type cells by incubation with PMA (100 ng/mL) for 48 to 72 hr. Cells were then pre-incubated with either the test compound or vehicle for 2 hr and were then stimulated briefly by exposure to H2O2 (10 mM, 5-7 min) and the reaction stopped by replacing the media with 4% formaldehyde solution. […] After washing with buffer (PBS containing 0.1% Triton X-100), cells were incubated with an HRP-conjugated secondary antibody (Dako) and the resultant signal was determined colorimetrically (OD: 450 nm with a reference wavelength of 655 nm) using TMB substrate (substrate reagent pack supplied by R&D Systems, Inc.).
This reaction was stopped by the addition of H2SO4 solution (100 μL). […] After washing with buffer (PBS containing 0.1% Triton X-100) 1% SDS (100 μL) was added to each well and the plates were shaken lightly for 1 hr prior to measuring the absorbance at 595 nm (Varioskan® Flash, Thermo-Fisher Scientific). The measured OD450-655 readings were corrected for cell number by dividing the OD450-655 by the D595 readings. The ratio of pAkt signal to total Akt signal was used to quantitate the extent of PI3K δ activation. […]

Assay [2] has as its system neutrophils from COPD patients. As to the kind of experiment: CXCL8 release from neutrophils obtained from COPD patients. Format: cell-based. The conditions noted are these: Homo sapiens, Neutrophil; read-out: REC50, TNFα-induced CXCL8 in neutrophils from COPD patients. As for the experimental part: The effects of treatment on CXCL8 release from neutrophils obtained from COPD patients were evaluated by an ELISA assay. All patients were recruited by Quintiles Limited (London, UK), and blood samples were delivered to Respivert Ltd. This study was approved by the local Ethics Committee, and all subjects gave written informed consent. Whole blood (30 mL) was mixed gently with ACD (5 mL; comprising: 7.36 g citric acid, 14.71 g sodium citrate, 9.91 g dextrose in 250 ml sterile, double distilled water) and 6% dextran (15 mL; diluted in 0.9% NaCl) to remove the red blood cells. The tubes were incubated at RT for 45 min, and the supernatant (white cell rich fraction) was then collected, leaving the red blood cells.
This fraction was centrifuged (10 min at 1200 rpm, 4° C.) with low braking. The supernatant was aspirated and the pellet was re-suspended in ice-cold, sterile double distilled H2O (10 mL), and 0.6 M KCl (4 mL) was added 30 seconds later. […]
Neutrophils were pre-incubated with test compounds or with DMSO vehicle for 1 hr and then stimulated with TNFα (10 ng/mL). Cell free supernatant was collected at 3 hr after TNFα stimulation, and CXCL8 was measured by ELISA using DuoSet ELISA development kit (R&D systems, Abingdon, UK). The IC50 values reported were determined from concentration-inhibition curves using XL-Fit (IDBS, Guildford, UK).

Assay [3] concerns cigarette smoke-induced cell accumulation and biomarkers in murine BALF. As to the kind of experiment: Cigarette smoke model. Format: in vivo, A/J mice. As for the experimental part:
A/J mice (males, 5 weeks old) were exposed to cigarette smoke (4% cigarette smoke, diluted with compressed air) for 30 min/day for 11 days using a Tobacco Smoke Inhalation Experiment System for small animals (Model SIS-CS; Sibata Scientific Technology, Tokyo, Japan). Test substances were administered once daily for 3 days after the final cigarette smoke exposure (intra-nasal dose comprising 35 μL of solution in 50% DMSO/isotonic saline).
At 12 hr after administration of the last dose, animals were anesthetized, the trachea was cannulated and bronchial alveolar lavage (BAL) was carried out by the instillation into and then withdawal from the lungs, of PBS (100 mL/kg). Total cell numbers in the BALF samples were measured using a haemocytometer under a phase-contrast microscope. The proportions of alveolar macrophages and neutrophils were determined by FACS analysis using anti-mouse MOMA2-FITC (macrophage) or anti-mouse 7/4 (neutrophil).
Cells were suspended in PBS and were incubated with anti-MOMA2-FITC (2 μg/mL, Catalogue no SM065F, Acris Antibodies GmbH, Herford, Germany) or anti-7/4-FITC (2 μg/mL, Catalogue no CL050F, Acris Antibodies GmbH, Herford, Germany) for 30 min at 30° C., and also counterstained with propidium iodide (2 μg/mL) to allow exclusion of necrotic cells. The cells were washed with PBS, and transferred to FACS tubes. Samples was set in a flow cytometer (ALTRA II; Beckman Coulter Japan, Tokyo, Japan), and a single-parameter FL2 [PMT2] (FITC) histogram with log x-axis was plotted to illustrate relative intensity of FITC.
Data files are stored for subsequent analysis using Kaluza analysis software (ver. 1.2) to calculate the proportion of each cell type. The levels of CXCL1(KC), MCP1, TNFα, IL-17 or osteopontin in BALF were determined using Quentikine® mouse KC, MCP1, TNFα, IL-17 or osteopontin ELISA kit (R&D systems, Inc., Minneapolis, Minn., USA). The presence of malondialdehyde was measured using OxiSelect® TBARS Assay Kit (MDA Quantitation; Cell Biolabs Inc, San Diego, Calif., USA).

Setting [4] is: CS + Compound (I) 0.02 mg/mL intra-nasal.
Setting [5] is: CS + Compound (I) 0.2 mg/mL intra-nasal.
Where [6] appears, read: CS + Compound (I) 2 mg/mL intra-nasal.

`COCCOCCOCC#Cc1cccc2nc(Cn3nc(-c4cc(O)cc(F)c4)c4c(N)ncnc43)n(Cc3ccccc3C(F)(F)F)c(=O)c12` [Compound (I), 2-((4-Amino-3-(3-fluoro-5-hydroxyphenyl)-1H-pyrazolo[3,4-d]pyrimidin-1-yl)methyl)-5-(3-(2-(2-methoxyethoxy)ethoxy)prop-1-yn-1-yl)-3-(2-(trifluoromethyl)benzyl)quinazolin-4(3H)-one]: the EC50 amounted to 7.4 nM in assay [1] and 2.2 nM in assay [2]. Besides, the Cell numbers in BAL, Macrophages, % inhibition in assay [3] (setting [4]) was 32%; in assay [3] (setting [5]) it was 0.2 (63) %; in assay [3] (setting [6]) it was 0.3 (79) %. The figures for the “Cell numbers in BAL, Neutrophils, % inhibition” value in assay [3] (setting [4]), in assay [3] (setting [5]) and in assay [3] (setting [6]) were 0.2 (26) %, 54% and 0.1 (68) %, respectively. Also, in assay [3] (contemporaneous study, FIG. 2), the “potency versus compound A, cigarette-smoke induced cell accumulation in murine BALF” value is recorded as “more potent inhibitor of cigarette-smoke induced cell accumulation in murine BALF than is compound A”.
